The term EC50 denotes the concentration that produces a half-maximal response.

We go through four compounds from paper PMC9320628, “Analysis of Structural Determinants of Peptide MS 9a-1 Essential for Potentiating of TRPA1 Channel” (Marine Drugs, 2022).

Read-outs that look alike come from different tables or passages of the source. Where a SMILES comes first, the peptide text is derived from it. Bridges are numbered along the chain shown (N, C = ends).

In one data set the test system is TRPA1-expressing oocytes. As to conditions: cited from earlier work. The protocol: Oocytes expressing rat TRPA1 (Q6RI86) channel were prepared as described previously. Experiments were approved by the Institutional Animal Care and Use Committee (IACUC) of the Shemyakin–Ovchinnikov Institute of Bioorganic Chemistry Russian Academy of Sciences (Protocol Number 267/2018; date of approval: 28 February 2019). Female frogs were anaesthetized with 0.17% solution of tricaine methane sulfonate (MS222) and oocytes were surgically removed. cRNA was synthesized using a HiScribe™ T7 High Yield RNA Synthesis Kit (New England Biolabs, Ipswich, MA, USA) according to the manufacturers’ ...

In data set [1] the target is T1, rat TRPA1 (Q6RI86) channel (Rattus norvegicus, UniProt Q6RI86).
T1 construct: expressed in transfected cells; host or cells: Xenopus laevis oocytes injected with cRNA
Briefly: Potentiation of diclofenac-induced TRPA1 currents, two-electrode recordings in Xenopus laevis oocytes. The class given is cell-based. Conditions: for Maximal potentiating effect lower than that of Ms 9a-1: compared to Ms 9a-1, inward and outward currents; for Diclofenac-induced inward current potentiated up to (maximal, % of control) / EC50 / Diclofenac-induced outward current potentiated up to (maximal, % of control): oocytes expressing rat TRPA1, diclofenac 300 μM; for EC50: Ca2+-free solution, 22–24 °C, mean ± SD of 4–7 measurements, SD. The protocol: Peptide activity was measured in Xenopus laevis oocytes, heterologously expressing the TRPA1 channel (Figure 2 and Figure S2). Recordings occurred in repeated 4 s pulses of voltage ramp from −100 mV to 100 mV over 200 ms, whereby inward current was measured at −100 mV and outward at 100 mV.
Oocytes expressing rat TRPA1 (Q6RI86) channel were prepared as described previously. Experiments were approved by the Institutional Animal Care and Use Committee (IACUC) of the Shemyakin–Ovchinnikov Institute of Bioorganic Chemistry Russian Academy of Sciences (Protocol Number 267/2018; date of approval: 28 February 2019). Female frogs were anaesthetized with 0.17% solution of tricaine methane sulfonate (MS222) and oocytes were surgically removed. cRNA was synthesized using a HiScribe™ T7 High Yield RNA Synthesis Kit (New England Biolabs, Ipswich, MA, USA) according to the manufacturers’ protocol for capped transcripts and then injected in X. laevis oocytes. The oocytes were kept for 2–7 days at 16–17 °C in sterile ND-96 medium (96 mM NaCl, 2 mM KCl, 1.8 mM CaCl2, 1 mM MgCl2, 5 mM HEPES, pH 7.4) supplemented with 50 μg/mL gentamycin. Electrophysiological recordings were carried out at room temperature (22–24 °C) in Ca^2+-free solution (96 mM NaCl, 2 mM KCl, 1 mM MgCl2, 5 mM HEPES, pH 7.4) using the GeneClamp500 amplifier (Axon Instruments, Union City, CA, USA) at a holding potential of −50 mV. The data were filtered at 20 Hz and digitized at 100 Hz by an AD converter L780 (LCard, Moscow, Russia) using in-house software. Oocytes were impaled with two glass microelectrodes filled with 3 M KCl. Inward/outward currents were recorded at repeated every 4 seconds a stimuli comprising step from holding potential to −100 mV for 80 ms followed by voltage ramp from −100 mV to +100 mV for 200 ms and final step to holding potential. Diclofenac (300 μM in Ca^2+-free solution) was used to activate the channel.

The conditions of data set [2]: cited from earlier work. The text has this: We compared the efficacy of peptides Ms 9a-1, C-Ms, N-Ms, Ms 9a-2, and Ms 9a-3 in models of AITC- ...
The mark [3] stands for this setting: inward current at −100 mV, read-out: EC50 of potentiation of diclofenac-induced inward TRPA1 current.
Setting [4] is: outward current at +100 mV, read-out: EC50 of potentiation of diclofenac-induced outward TRPA1 current.

T1 sequence (Q6RI86 whole entry): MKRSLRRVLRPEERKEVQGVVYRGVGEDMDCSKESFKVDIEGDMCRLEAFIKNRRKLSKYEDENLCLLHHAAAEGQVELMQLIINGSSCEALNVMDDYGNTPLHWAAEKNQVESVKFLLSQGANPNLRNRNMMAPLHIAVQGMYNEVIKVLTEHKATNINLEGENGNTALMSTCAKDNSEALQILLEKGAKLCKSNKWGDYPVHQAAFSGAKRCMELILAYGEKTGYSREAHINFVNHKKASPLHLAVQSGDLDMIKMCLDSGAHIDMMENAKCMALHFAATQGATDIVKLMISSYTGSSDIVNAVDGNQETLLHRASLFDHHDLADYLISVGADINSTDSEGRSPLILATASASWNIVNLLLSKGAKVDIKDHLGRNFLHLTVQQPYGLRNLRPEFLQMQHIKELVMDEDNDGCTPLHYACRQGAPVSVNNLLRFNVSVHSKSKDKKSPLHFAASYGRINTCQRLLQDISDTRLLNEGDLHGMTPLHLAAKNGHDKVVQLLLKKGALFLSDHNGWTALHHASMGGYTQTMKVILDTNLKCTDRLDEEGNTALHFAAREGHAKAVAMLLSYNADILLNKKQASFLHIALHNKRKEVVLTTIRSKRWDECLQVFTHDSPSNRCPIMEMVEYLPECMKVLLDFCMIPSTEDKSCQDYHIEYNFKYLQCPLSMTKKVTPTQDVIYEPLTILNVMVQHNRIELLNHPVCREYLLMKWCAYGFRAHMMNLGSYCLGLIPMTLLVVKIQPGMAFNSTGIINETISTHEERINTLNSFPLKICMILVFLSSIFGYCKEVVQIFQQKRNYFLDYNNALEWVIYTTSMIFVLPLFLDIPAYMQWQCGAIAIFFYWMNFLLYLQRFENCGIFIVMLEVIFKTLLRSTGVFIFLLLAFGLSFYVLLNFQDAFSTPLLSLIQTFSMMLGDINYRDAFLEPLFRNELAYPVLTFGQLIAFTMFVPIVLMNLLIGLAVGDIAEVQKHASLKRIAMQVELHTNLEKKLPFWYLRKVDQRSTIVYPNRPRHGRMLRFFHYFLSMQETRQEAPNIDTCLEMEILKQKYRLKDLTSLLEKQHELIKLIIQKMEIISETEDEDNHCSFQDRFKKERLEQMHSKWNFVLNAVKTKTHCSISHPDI

With `O=C(O)Cc1ccccc1Nc1c(Cl)cccc1Cl` [Diclofenac], in the data set with TRPA1-expressing oocytes (X. laevis oocytes, read-out: EC50 of current increase in TRPA1-expressing oocytes), the concentration giving a half-maximal response (EC50) was 210000 nM. Moreover, in the data set on TRPA1-expressing oocytes (uninjected oocytes), the “Effect on uninjected oocytes of X. laevis” value is reported as “no effect”.
Take `CC[C@H](C)[C@@H]1NC(=O)[C@H](CCCNC(=N)N)NC(=O)[C@H](C(C)C)NC(=O)[C@@H]2CSSC[C@H](NC(=O)CNC(=O)CNC(=O)[C@@H](NC(=O)[C@@H](NC(=O)[C@@H](NC(=O)[C@@H](N)CC(N)=O)[C@@H](C)CC)[C@@H](C)CC)C(C)C)C(=O)N[C@@H](CO)C(=O)N[C@@H](CCCCN)C(=O)N[C@@H](CSSC[C@@H](C(=O)NCC(=O)N[C@H](C(=O)O)C(C)C)NC(=O)CNC(=O)[C@H](C)NC1=O)C(=O)N[C@@H](Cc1c[nH]cn1)C(=O)N[C@@H]([C@@H](C)O)C(=O)N[C@@H](CCC(=O)O)C(=O)N[C@@H](CC(=O)O)C(=O)N[C@@H](CO)C(=O)N[C@@H](CC(N)=O)C(=O)NCC(=O)N[C@@H](CC(N)=O)C(=O)N2` [Ms 9a-3] (H-NIIVGGCSKCHTEDSNGNCVRIAGCGV-OH; disulfide 7-19, 10-25): the “Maximal potentiating effect lower than that of Ms 9a-1” value in data set [1] is on record as 15–30%. The “Diclofenac-induced inward current potentiated up to (maximal, % of control)” value in data set [1] (inward current at −100 mV) came to 159%. Besides, the EC50 in data set [1] (setting [3]) came to 5440 ± 2900 nM; in data set [1] (setting [4]), 7800 ± 600 nM. In addition, the “Diclofenac-induced outward current potentiated up to (maximal, % of control)” value in data set [1] (outward current at +100 mV) came out at 175%.
Consider `CC[C@H](C)[C@@H]1NC(=O)[C@@H](NC(=O)CNC(=O)CNC(=O)[C@@H](NC(=O)[C@@H](NC(=O)[C@@H](NC(=O)[C@@H](N)CC(N)=O)[C@@H](C)CC)[C@@H](C)CC)C(C)C)CSSC[C@@H]2NC(=O)[C@H](CCCNC(=N)N)NC(=O)CNC(=O)[C@H](CO)NC(=O)[C@H](C)NC(=O)[C@H](CC(N)=O)NC(=O)[C@H](CCCCN)NC(=O)[C@H](C(C)C)NC(=O)[C@H](Cc3c[nH]cn3)NC(=O)[C@H](CSSC[C@@H](C(=O)NCC(=O)N[C@H](C(=O)N[C@@H](CC(=O)O)C(=O)N[C@@H](CCCCN)C(=O)N[C@H](C(=O)N3CCC[C@H]3C(=O)N[C@@H](CC(=O)O)C(=O)N[C@@H](CC(C)C)C(=O)N[C@@H](Cc3ccccc3)C(=O)N[C@@H](CO)C(=O)O)C(C)C)C(C)C)NC(=O)CNC(=O)[C@H](C(C)C)NC(=O)[C@H]([C@@H](C)CC)NC(=O)[C@H](CCCNC(=N)N)NC(=O)[C@H](C(C)C)NC2=O)NC(=O)[C@H](CCCCN)NC1=O` [Ms 9a-1] (H-NIIVGGCIKCHVKNASGRCVRIVGCGVDKVPDLFS-OH; disulfide 7-19, 10-25), for which the “Diclofenac-induced inward current potentiated up to (maximal, % of control)” value in data set [1] (inward current at −100 mV) is 190%. Besides, the EC50 in data set [1] (setting [3]) amounted to 210 ± 3 nM; in data set [1] (setting [4]), 32 ± 7 nM. The “Diclofenac-induced outward current potentiated up to (maximal, % of control)” value in data set [1] (outward current at +100 mV) amounted to 175%. The “Pain or thermal hyperalgesia caused in vivo” value in data set [2] was “does not cause pain or thermal hyperalgesia”.
As to `CC[C@H](C)[C@@H]1NC(=O)[C@H](CCCNC(=N)N)NC(=O)[C@H](C(C)C)NC(=O)[C@@H]2CSSC[C@H](NC(=O)CNC(=O)CNC(=O)[C@@H](NC(=O)[C@@H](NC(=O)[C@@H](NC(=O)[C@@H](N)CC(N)=O)[C@@H](C)CC)[C@@H](C)CC)C(C)C)C(=O)N[C@@H](CO)C(=O)N[C@@H](CCCCN)C(=O)N[C@@H](CSSC[C@@H](C(=O)NCC(=O)N[C@H](C(=O)O)C(C)C)NC(=O)CNC(=O)[C@H](C)NC1=O)C(=O)N[C@@H](Cc1c[nH]cn1)C(=O)N[C@@H](CCCCN)C(=O)N[C@@H](CCC(N)=O)C(=O)N[C@@H](CC(=O)O)C(=O)N[C@@H](CO)C(=O)N[C@@H](CO)C(=O)NCC(=O)N[C@@H](CC(N)=O)C(=O)N2` [Ms 9a-2] (H-NIIVGGCSKCHKQDSSGNCVRIAGCGV-OH; disulfide 7-19, 10-25), the “Maximal potentiating effect lower than that of Ms 9a-1” value in data set [1] is 45–50%. Besides, the “Increase of effective concentration (EC50) for inward current compared to Ms 9a-1” value in data set [1] (inward current, relative to Ms 9a-1) is given as 3 times. Further, the “Diclofenac-induced inward current potentiated up to (maximal, % of control)” value in data set [1] (inward current at −100 mV) came to 139%. The 50% effective concentration (EC50) was determined as 412 ± 48 nM in data set [1] (setting [3]) and 606 ± 201 nM in data set [1] (setting [4]). In data set [1] (outward current at +100 mV), the “Diclofenac-induced outward current potentiated up to (maximal, % of control)” value was found to be 131%.
